Each structure is given as a SMILES string. pEC50: −log10 of the molar value.

The experiment deals with HCV 1b genotype replicon. Briefly: HCV genotype-1b replicon assay (qRT-PCR or luciferase). Format: cell-based. The conditions noted are these: Hepatitis C virus, read-out: Genotype-1b replicon EC50 Range. From the text: HCV replicon cell lines (kindly provided by R. Bartenschlager) isolated from colonies as described by Lohman et. al. (Lohman et al. (1999) Science 285: 110-113, expressly incorporated by reference in its entirety) and used for all experiments. The HCV replicon has the nucleic acid sequence set forth in EMBL Accession No.: AJ242651, the coding sequence of which is from nucleotides 1801 to 8406.
The coding sequence of the published HCV replicon was synthesized and subsequently assembled in a modified plasmid pBR322 (Promega, Madison, Wis.) using standard molecular biology techniques. […]
EC50 values of single agent compounds and combinations were determined by HCV RNA detection using quantitative RT-PCR, according to the manufacturer's instructions, with a TAQMAN® One-Step RT-PCR Master Mix Reagents Kit (Cat # AB 4309169, Applied Biosystems) on an ABI Model 7500 thermocycler. The TaqMan primers used for detecting and quantifying HCV RNA were obtained from Integrated DNA Technologies. HCV RNA was normalized to GAPDH RNA levels in drug-treated cells, which was detected and quantified using the Human GAPDH Endogenous Control Mix (Applied Biosystems, AB 4310884E). […] Chemical agent cytotoxicity was evaluated using an MTS assay according to the manufacturer's directions (Promega). […]

For `COC(=O)N[C@H](C(=O)N1CCC(C(=O)Nc2ccc(-c3ccc(NC(=O)C4CCN(C(=O)[C@@H](NC(=O)OC)C(C)C)C4)cc3)cc2)C1)C(C)C` (stereo partly shown) [Example 295], the pEC50 was below 8.00.

The values above are taken from patent US8703938B2, “Hepatitis C virus inhibitors” (Enanta Pharmaceuticals, Inc., priority 2009, dated 2014).
